The values below come from publication PMC9762789, “Chromone-based monoamine oxidase B inhibitor with potential iron-chelating activity for the treatment of Alzheimer’s disease” (Journal of Enzyme Inhibition and Medicinal Chemistry, 2022).

Like-named read-outs stand apart in the source and are kept apart here.

Data set [1] can be described thus: pKa determination by automated spectrophotometric titration. It counts as physicochemical. The note with it: 0.1 M KCl solution.
Another data set has as its target T1, Human MAO-A (Homo sapiens, UniProt P21397).
T1 construct: purchased Sigma-Aldrich
T1 sequence (P21397 1-527): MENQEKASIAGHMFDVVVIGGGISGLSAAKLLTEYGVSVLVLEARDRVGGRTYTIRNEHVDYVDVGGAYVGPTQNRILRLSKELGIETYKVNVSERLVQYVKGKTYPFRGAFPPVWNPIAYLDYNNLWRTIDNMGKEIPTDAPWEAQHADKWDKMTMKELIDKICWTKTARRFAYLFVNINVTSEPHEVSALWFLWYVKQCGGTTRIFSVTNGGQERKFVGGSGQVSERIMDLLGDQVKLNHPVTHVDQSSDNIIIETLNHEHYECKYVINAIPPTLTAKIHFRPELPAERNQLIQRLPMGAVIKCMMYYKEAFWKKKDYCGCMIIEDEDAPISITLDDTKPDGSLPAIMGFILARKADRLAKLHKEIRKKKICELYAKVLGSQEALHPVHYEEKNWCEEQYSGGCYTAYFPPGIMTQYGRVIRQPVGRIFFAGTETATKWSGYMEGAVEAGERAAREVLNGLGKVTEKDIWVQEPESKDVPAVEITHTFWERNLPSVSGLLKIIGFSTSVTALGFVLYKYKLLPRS
The data set is described as follows: hMAO-A inhibition assay. It is filed as biochemical. The settings on record: read-out: hMAO-A inhibitory rate at 10 μM; 10 μM (highest concentration tested). As to the method: Further, the inhibitory activity of compounds against hMAO-A isoform was tested and calculated as a selectivity index [Selectivity index (SI): IC50 (hMAO-A)/IC50 (hMAO-B)].
(§1) The reagents and enzymes (Human MAO-B and Human MAO-A) applied in this experiment were purchased from Sigma-Aldrich. According to the manuals, all components (substrate solution and enzyme solution) are diluted and placed aside for use. The detailed process has been mentioned in our early work[34].

The nature of data set [2]: iron (III) affinity constants and pFe3+ by spectrophotometric titration. It counts as physicochemical. The settings on record: for Log β1 / Log β2 / Log β3: DMSO: KCl (0.1 M) = 1:1.5 (v/v); for pFe^3+: calculated from Log β values obtained in DMSO: KCl (0.1 M) = 1:1.5 (v/v).
Another data set addresses T2, MAO-B (Homo sapiens, UniProt P27338).
T2 construct: purchased Sigma-Aldrich
T2 sequence (P27338 1-520): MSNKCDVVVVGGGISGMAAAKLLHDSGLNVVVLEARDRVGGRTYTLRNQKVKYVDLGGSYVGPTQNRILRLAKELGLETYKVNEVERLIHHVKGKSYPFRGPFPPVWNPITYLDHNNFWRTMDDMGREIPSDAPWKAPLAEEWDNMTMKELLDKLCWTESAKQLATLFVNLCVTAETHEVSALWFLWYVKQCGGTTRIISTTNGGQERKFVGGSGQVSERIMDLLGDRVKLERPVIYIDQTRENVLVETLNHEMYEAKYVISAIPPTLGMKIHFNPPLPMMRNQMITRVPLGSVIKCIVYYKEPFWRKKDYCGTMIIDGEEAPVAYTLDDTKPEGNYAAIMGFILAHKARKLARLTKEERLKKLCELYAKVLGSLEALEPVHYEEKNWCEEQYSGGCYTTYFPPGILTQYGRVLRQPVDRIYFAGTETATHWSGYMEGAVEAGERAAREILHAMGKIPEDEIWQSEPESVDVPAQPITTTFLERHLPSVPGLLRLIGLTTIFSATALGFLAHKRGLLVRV
As to the kind of experiment: hMAO-B inhibition assay. It counts as biochemical. The note with it: for inhibition at 0.1 µM: hMAO-B, 100 nM, read-out: Inhibitory rate (%, 100 nM). As to the method:
as §1

`Cc1c(O)c(=O)ccn1CCNC(=O)c1coc2ccccc2c1=O` [Compound 8a, N-(2–(3-hydroxy-2-methyl-4-oxopyridin-1(4H)-yl)ethyl)-4-oxo-4H-chromene-3-carboxamide] showed a melting point of 268 to 270 °C. For the same molecule, in data set [1] (read-out: pKa1), the pKa is 3.29. In addition, the pKa in data set [1] (read-out: pKa2) was 9.67. Besides, the inhibition at 10 µM at Human MAO-A is under 20%. In data set [2], the “Log β1” value is recorded as 13.67, the “Log β2” value amounted to 25.22, the “Log β3” value was found to be 34.95 and the “pFe^3+” value is 18.68. Besides, on MAO-B, it took 112 ± 1.3 nM to reach half-maximal inhibition (IC50), the “SI: hMAO-B selectivity index = IC50 (hMAO-A)/IC50 (hMAO-B)” value (shortened to “SI: hMAO-B selectivity index = IC50”) is over 89 and the inhibition at 0.1 µM worked out at 42.2 ± 3.7%.
In turn, `Cc1ccc2c(=O)c(C(=O)NCCn3ccc(=O)c(O)c3C)coc2c1` [Compound 8b, N-(2–(3-hydroxy-2-methyl-4-oxopyridin-1(4H)-yl)ethyl)-7-methyl-4-oxo-4H-chromene-3-carboxamide] returned a melting point of 270 to 272 °C. The pKa in data set [1] (read-out: pKa1) was 3.32. In addition, in data set [1] (read-out: pKa2), the pKa is 9.58. Also, in data set [2], the “Log β1” value was 13.74, the “Log β2” value turned out to be 25.04, the “Log β3” value is on record as 34.36 and the “pFe^3+” value is recorded as 18.35. Further, the inhibition at 0.1 µM on MAO-B stood at 35.79 ± 0.2%.
In turn, `Cc1ccc2occ(C(=O)NCCn3ccc(=O)c(O)c3C)c(=O)c2c1` [Compound 8c, N-(2–(3-hydroxy-2-methyl-4-oxopyridin-1(4H)-yl)ethyl)-6-methyl-4-oxo-4H-chromene-3-carboxamide] registered a melting point of 265 to 267 °C. For the same molecule, in data set [1] (read-out: pKa1), the pKa was 3.26. Further, the pKa in data set [1] (read-out: pKa2) stood at 9.69. Further, the inhibition at 10 µM on Human MAO-A is under 20%. Moreover, in data set [2], the “Log β1” value was determined as 13.86, the “Log β2” value is 25.07, the “Log β3” value was 33.48 and the “pFe^3+” value was 17.19. Also, at MAO-B, the IC50 is 112 ± 5.7 nM, the “SI: hMAO-B selectivity index = IC50” value is on record as over 89 and the inhibition at 0.1 µM worked out at 42.1 ± 0.8%.
Molecule `COc1ccc2c(=O)c(C(=O)NCCn3ccc(=O)c(O)c3C)coc2c1` [Compound 8d, N-(2–(3-hydroxy-2-methyl-4-oxopyridin-1(4H)-yl)ethyl)-7-methoxy-4-oxo-4H-chromene-3-carboxamide] registered a melting point of 248 to 250 °C. In data set [1] (read-out: pKa1), the pKa came to 3.2. Further, the pKa in data set [1] (read-out: pKa2) is 9.6. Besides, the inhibition at 10 µM at Human MAO-A is under 20%. In data set [2], the “Log β1” value stood at 13.82, the “Log β2” value was determined as 25.31, the “Log β3” value stood at 34.23 and the “pFe^3+” value was 18.18. At MAO-B, it took 107 ± 5.6 nM to reach half-maximal inhibition (IC50), the “SI: hMAO-B selectivity index = IC50” value is on record as over 93 and the inhibition at 0.1 µM was found to be 41.9 ± 1.4%.
`COc1ccc2occ(C(=O)NCCn3ccc(=O)c(O)c3C)c(=O)c2c1` [Compound 8e, N-(2–(3-hydroxy-2-methyl-4-oxopyridin-1(4H)-yl)ethyl)-6-methoxy-4-oxo-4H-chromene-3-carboxamide]: the melting point fell in the range of 260 to 262 °C. Moreover, the pKa in data set [1] (read-out: pKa1) came to 3.18. The pKa in data set [1] (read-out: pKa2) is 9.67. In data set [2], the “Log β1” value was 13.67, the “Log β2” value is 25.38, the “Log β3” value is recorded as 35.37 and the “pFe^3+” value was 19.08. Moreover, the inhibition at 0.1 µM on MAO-B was 34.3 ± 2.2%.
Regarding `Cc1c(O)c(=O)ccn1CCNC(=O)c1coc2cc(OCc3ccccc3)ccc2c1=O` [Compound 15a, 7-(Benzyloxy)-N-(2–(3-hydroxy-2-methyl-4-oxopyridin-1(4H)-yl)ethyl)-4-oxo-4H-chromene-3-carboxamide], the melting point lay within 225 to 227 °C. Moreover, the pKa in data set [1] (read-out: pKa1) was found to be 3.3. The pKa in data set [1] (read-out: pKa2) worked out at 9.59. Moreover, in data set [2], the “Log β1” value amounted to 13.77, the “Log β2” value amounted to 24.72, the “Log β3” value worked out at 32.17 and the “pFe^3+” value was 16.45. Moreover, the inhibition at 0.1 µM at MAO-B is 39 ± 1.1%.
`Cc1cccc(COc2ccc3c(=O)c(C(=O)NCCn4ccc(=O)c(O)c4C)coc3c2)c1` [Compound 15b, N-(2–(3-hydroxy-2-methyl-4-oxopyridin-1(4H)-yl)ethyl)-7-((3-methylbenzyl)oxy)-4-oxo-4H-chromene-3-carboxamide] showed a melting point of 238 to 240 °C. Further, the pKa in data set [1] (read-out: pKa1) was determined as 3.06. In addition, in data set [1] (read-out: pKa2), the pKa amounted to 9.73. In addition, in data set [2], the “Log β1” value was 13.64, the “Log β2” value is given as 25.57, the “Log β3” value was determined as 34.21 and the “pFe^3+” value is listed as 17.80. Also, the inhibition at 0.1 µM on MAO-B was 39.1 ± 1.1%.
`Cc1ccc(COc2ccc3c(=O)c(C(=O)NCCn4ccc(=O)c(O)c4C)coc3c2)cc1` [Compound 15c, N-(2–(3-hydroxy-2-methyl-4-oxopyridin-1(4H)-yl)ethyl)-7-((4-methylbenzyl)oxy)-4-oxo-4H-chromene-3-carboxamide]: the melting point is 234 to 236 °C. Moreover, the pKa in data set [1] (read-out: pKa1) was determined as 3.19. For the same molecule, the pKa in data set [1] (read-out: pKa2) came to 9.34. In addition, in data set [2], the “Log β1” value was 13.40, the “Log β2” value is listed as 23.16, the “Log β3” value was determined as 31.01 and the “pFe^3+” value was 15.87. In addition, on MAO-B, the inhibition at 0.1 µM was 38.7 ± 0.5%.
In the case of `Cc1c(O)c(=O)ccn1CCNC(=O)c1coc2cc(OCc3cccc(F)c3)ccc2c1=O` [Compound 15d, 7-((3-Fluorobenzyl)oxy)-N-(2–(3-hydroxy-2-methyl-4-oxopyridin-1(4H)-yl)ethyl)-4-oxo-4H-chromene-3-carboxamide], the melting point fell in the range of 237 to 239 °C. For the same molecule, the pKa in data set [1] (read-out: pKa1) was found to be 3.36. Besides, in data set [1] (read-out: pKa2), the pKa worked out at 9.52. Further, in data set [2], the “Log β1” value was found to be 13.50, the “Log β2” value was found to be 25.31, the “Log β3” value is recorded as 34.85 and the “pFe^3+” value is on record as 19.01. Further, on MAO-B, the inhibition at 0.1 µM amounted to 38.5 ± 1.4%.
On to `Cc1c(O)c(=O)ccn1CCNC(=O)c1coc2cc(OCc3ccc(Cl)cc3)ccc2c1=O` [Compound 15g, 7-((4-Chlorobenzyl)oxy)-N-(2–(3-hydroxy-2-methyl-4-oxopyridin-1(4H)-yl)ethyl)-4-oxo-4H-chromene-3-carboxamide], for which the melting point is 241 to 243 °C. The pKa in data set [1] (read-out: pKa1) was found to be 3.25. Moreover, the pKa in data set [1] (read-out: pKa2) was 9.56. In data set [2], the “Log β1” value was 13.82, the “Log β2” value worked out at 24.02, the “Log β3” value is 31.70 and the “pFe^3+” value is on record as 16.00. Moreover, the inhibition at 0.1 µM at MAO-B was 39.1 ± 0.5%.
Molecule `Cc1ccc(COc2ccc3c(=O)c(CNCCn4ccc(=O)c(O)c4C)coc3c2)cc1` [Compound 17h, 3-Hydroxy-2-methyl-1–(2-(((7-((4-methylbenzyl)oxy)-4-oxo-4H-chromen-3-yl)methyl)amino)ethyl)pyridin-4(1H)-one] returned a melting point of 134 to 136 °C. Besides, the pKa in data set [1] (read-out: pKa1) came to 2.56. Moreover, the pKa in data set [1] (read-out: pKa2) was found to be 9.59. Besides, in data set [2], the “Log β1” value was found to be 12.87, the “Log β2” value was determined as 24.73, the “Log β3” value is 33.36 and the “pFe^3+” value was 17.34. Further, the inhibition at 0.1 µM on MAO-B worked out at 30.1 ± 3.7%.
Molecule `Cc1c(O)c(=O)ccn1CCNCc1coc2cc(OCc3cccc(F)c3)ccc2c1=O` [Compound 17i, 1–(2-(((7-((3-Fluorobenzyl)oxy)-4-oxo-4H-chromen-3-yl)methyl)amino)ethyl)-3-hydroxy-2-methylpyridin-4(1H)-one] displayed a melting point of 215 to 217 °C. Moreover, the pKa in data set [1] (read-out: pKa1) came to 2.58. Besides, the pKa in data set [1] (read-out: pKa2) was 9.68. Also, in data set [2], the “Log β1” value was 12.93, the “Log β2” value is 24.99, the “Log β3” value is 34.10 and the “pFe^3+” value is on record as 17.81. Further, the inhibition at 0.1 µM at MAO-B is 39.48 ± 0.3%.
